Results published in patent US8153649B2, “3-aminoimidazo 1,2-A pyridine derivatives having an SGLT1- and SGLT2-inhibiting action for the treatment of type 1 and type 2 diabetes” (Merck Patent Gesellschaft mit beschrankter Haftung, priority 2006, dated 2012).

What was measured:
SGLT1 = biological target: T1, SGLT1 (Homo sapiens, UniProt P13866); experiment: 14C-AMG uptake in BHK cells transfected with SGLT1; assay type: cell-based; details: 37° C., 90 min
T1 construct: expressed in transfected cells
T1 sequence (P13866 1-664): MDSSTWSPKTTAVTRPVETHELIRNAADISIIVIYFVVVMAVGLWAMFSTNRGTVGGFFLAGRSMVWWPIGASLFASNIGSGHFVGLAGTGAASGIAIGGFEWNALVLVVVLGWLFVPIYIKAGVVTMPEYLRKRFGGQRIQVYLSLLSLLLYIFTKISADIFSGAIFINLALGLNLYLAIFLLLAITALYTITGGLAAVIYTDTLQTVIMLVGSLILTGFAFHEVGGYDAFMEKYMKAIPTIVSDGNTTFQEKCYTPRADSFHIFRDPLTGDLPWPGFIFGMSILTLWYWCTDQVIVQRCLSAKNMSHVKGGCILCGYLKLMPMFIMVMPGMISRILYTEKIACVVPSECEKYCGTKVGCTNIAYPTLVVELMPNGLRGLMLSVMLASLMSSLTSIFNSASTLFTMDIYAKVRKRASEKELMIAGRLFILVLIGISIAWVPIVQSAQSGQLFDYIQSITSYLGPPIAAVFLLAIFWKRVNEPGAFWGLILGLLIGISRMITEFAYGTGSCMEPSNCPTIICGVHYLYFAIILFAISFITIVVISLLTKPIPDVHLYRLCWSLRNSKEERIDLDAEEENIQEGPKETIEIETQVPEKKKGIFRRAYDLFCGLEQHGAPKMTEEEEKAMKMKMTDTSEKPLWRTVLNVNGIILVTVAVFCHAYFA
Text: (§1) The compounds can be tested on their SGLT inhibition properties by means of BHK cells expressing SGLT1 and SGLT2. The production of the cells and the testing can be carried out as described below.
To construct the SGLT1 expression vector (KL225), the SLC5A1 gene (homologous to NM_000343) was amplified from a cDNA library using standard PCR technology and cloned over NheI/XhoI sites into the cDNA3.1 expression vector (Invitrogen) containing neomycin as a selection marker. In this vector, transcription uses the enhancer/promoter of human cytomegalovirus.
The final vector KL225 together with an additional vector containing a dihydrofolate reductase gene as a selection marker was introduced into cells. Transfection into BHK21 cells (ATCC CCL-10), cultivated in DMEM medium (GIBCO/BRL), supplemented with 10% foetal calf serum (FCS) and 20 mM glutamine, was carried out using calcium phosphate transfections according to Graham, F. L. and van der Ebb, A. J. (1973), Virology 52: 456 with 5-20 μg of uncut plasmids for 10^7 cells. Stable transfectants were selected in medium containing 1 mg/ml of G418 (GIBCO/BRL) and 20-5000 nM methotrexate as final concentration, where only cells which expressed the neomycin gene and overexpressed the dhfr gene were able to grow. After growth for 2-3 weeks, the cells were cloned (0.5 cells/well) and the clones were investigated for SGLT expression in the radioactivity uptake test. […]
(§2) A 96-well cell-based assay was developed and adapted to HIS requirements:
(§3) BHK cells (transfected with SGLT1 or SGLT2) were seeded into 96-well microtitre plates (Cultureplates, Perkin Elmer). After at least 24 h, medium was removed and the cell layer was washed with assay buffer (140 mM NaCl, 2 mM KCl, 1 mM CaCl2, 1 mM MgCl2, 10 mM HEPES, 5 mM Tris, adjusted with 1 M KOH to pH 7.4), After addition of 40 μl of assay buffer, 50 μl of AMG ([…] for SGLT1 and 2 mM for SGLT2) in the presence or absence of compounds, the cells were incubated in a total volume of 100 μl at 37° C. for 90 min. Supernatant was removed by suction and discarded. The cells were washed and lysed by addition of 50 μl of water. After 10 min at room temperature, 200 μl of Microscint 40 (Perkin Elmer) were added. The radioactivity was counted in a Topcount microplate scintillation counter (Perkin Elmer). The non-specific uptake was determined in sodium-free assay buffer (266 mM sucrose, 2 mM KCl, 1 mM CaCl2, 1 mM MgCl2, 10 mM HEPES, 5 mM Tris, adjusted to pH 7.4 using 1 M KOH).

SGLT2 = biological target: T2, SGLT2 (Homo sapiens, UniProt P31639); experiment: 14C-AMG uptake in BHK cells transfected with SGLT2; assay type: cell-based; details: 37° C., 90 min
T2 construct: expressed in transfected cells
T2 sequence (P31639 1-672): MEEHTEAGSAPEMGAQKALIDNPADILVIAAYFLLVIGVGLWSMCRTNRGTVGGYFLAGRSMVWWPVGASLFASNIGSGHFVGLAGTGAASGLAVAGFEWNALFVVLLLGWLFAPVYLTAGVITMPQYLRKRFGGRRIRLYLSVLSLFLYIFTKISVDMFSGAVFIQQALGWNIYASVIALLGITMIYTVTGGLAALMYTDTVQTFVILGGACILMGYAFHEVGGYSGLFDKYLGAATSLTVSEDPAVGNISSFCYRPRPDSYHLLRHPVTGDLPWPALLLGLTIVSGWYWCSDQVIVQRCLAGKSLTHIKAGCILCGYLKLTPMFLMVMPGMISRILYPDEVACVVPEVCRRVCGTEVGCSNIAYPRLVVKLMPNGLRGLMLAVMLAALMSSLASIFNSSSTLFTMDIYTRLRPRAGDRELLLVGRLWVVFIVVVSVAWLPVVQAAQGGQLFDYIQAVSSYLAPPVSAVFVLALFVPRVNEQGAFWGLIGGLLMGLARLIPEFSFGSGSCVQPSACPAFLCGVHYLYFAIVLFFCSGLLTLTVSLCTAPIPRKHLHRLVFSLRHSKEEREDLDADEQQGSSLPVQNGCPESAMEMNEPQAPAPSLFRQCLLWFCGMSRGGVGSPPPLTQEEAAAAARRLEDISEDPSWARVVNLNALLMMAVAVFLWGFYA
Text: as §1
To construct the SGLT2 expression vector (KL224), the SLC5A2 gene (homologous to NM_003041) was amplified from a cDNA library using standard PCR technology and cloned over NheI/XhoI sites into PCI-neo expression vector (Promega) containing neomycin as a selection marker. In this vector, transcription uses the enhancer/promoter of human cytomegalovirus and the SV40 polyadenylation signal.
The final vector KL224 together with an additional vector containing a dihydrofolate reductase gene as a selection marker was introduced into cells. Transfection into BHK21 cells (ATCC CCL-10), cultivated in DMEM medium (GIBCO/BRL), supplemented with 10% foetal calf serum (FCS) and 20 mM glutamine, was carried out using calcium phosphate transfections according to Graham, F. L. and van der Ebb, A. J. (1973), Virology 52: 456 with 5-20 μg of uncut plasmids for 10^7 cells. Stable transfectants were selected in medium containing 1 mg/ml of G418 (GIBCO/BRL) and 20-5000 nM methotrexate as final concentration, where only cells which expressed the neomycin gene and overexpressed the dhfr gene were able to grow. After growth for 2-3 weeks, the cells were cloned (0.5 cells/well) and the clones were investigated for SGLT expression in the radioactive uptake test,
The uptake of ^14C-α-methyl-D-glucopyranoside (AMG) in, for example, Xenopus oocytes injected with the corresponding cRNA has been described in principle (for example Wen-Sen Lee et al. (1994), J. Biol. Chem. 269, 12032-12039; Guofeng You et al. (1995), J. Biol. Chem. 270, 29365-29371).
as §2, §3

| IC50 (SGLT1) [nM] | IC50 (SGLT2) [nM] | SMILES |
| --- | --- | --- |
| > 10000 | 10 to 1000 | Cc1cccc(C)c1Nc1c(-c2ccccc2-c2nnc(N)o2)nc2ccc(F)cn12 [Compound B1, {2-[2-(5-amino-1,3,4-oxadiazol-2-yl)phenyl]-6-fluoroimidazo[1,2-a]pyridin-3-yl}-(2,6-dimethylphenyl)amine] |
| > 10000 | 10 to 1000 | Cc1cccc(C)c1Nc1c(-c2c(Cl)cccc2-c2nnc(N)o2)nc2ccc(F)cn12 [Compound B2] |
| 1000 to 10000 | 10 to 1000 | CNc1nnc(-c2ccccc2-c2nc3ccc(F)cn3c2Nc2c(C)cccc2C)o1 [Compound C1, (2,6-dimethylphenyl)-{6-fluoro-2-[2-(5-methylamino-1,3,4-oxadiazol-2-yl)phenyl]imidazo[1,2-a]pyridin-3-yl}amine] |
| > 10000 | 1000 to 10000 | CNc1nnc(-c2cc(O)c(O)cc2-c2nc3ccc(F)cn3c2Nc2c(C)cc(F)cc2C)o1 [Compound C2] |
| > 10000 | 1000 to 10000 | CNc1nnc(-c2cc(OC)c(OC)cc2-c2nc3ccc(F)cn3c2Nc2c(C)cc(F)cc2C)o1 [Compound C3] |
| 1000 to 10000 | 10 to 1000 | Cc1cccc(C)c1Nc1c(-c2ccccc2-c2nnc(N(C)C)o2)nc2ccc(F)cn12 [Compound C4] |
| 1000 to 10000 | 10 to 1000 | CCNc1nnc(-c2ccccc2-c2nc3ccc(F)cn3c2Nc2c(C)cccc2C)o1 [Compound C5] |
| 1000 to 10000 | 10 to 1000 | CNc1nnc(-c2c(-c3nc4ccc(F)cn4c3Nc3c(C)cccc3C)c3ccccc3n2C)o1 [Compound C12, (2,6-Dimethylphenyl)-{6-fluoro-2-[1-methyl-2-(5-methylamino-1,3,4-oxadiazol-2-yl)-1H-indol-3-yl]imidazo[1,2-a]pyridin-3-yl}amine] |
| 10 to 1000 | 10 to 1000 | CNc1nnc(-c2sc3ccccc3c2-c2nc3ccc(F)cn3c2Nc2c(C)cccc2C)o1 [Compound C13, (2,6-Dimethylpheny1)-{6-fluoro-2-[2-(5-methylamino-1,3,4-oxadiazol-2-y1)-benzo[b]thiophen-3-yl]imidazo[1,2-a]pyridin-3-yl}amine] |

Continued, molecule first:

| SMILES | IC50 (SGLT1) [nM] | IC50 (SGLT2) [nM] |
| --- | --- | --- |
| Cc1cccc(C)c1Nc1c(-c2ccccc2-c2nccs2)nc2ccc(F)cn12 [Compound A1, (2,6-dimethylphenyl)-[6-fluoro-2-(2-thiazol-2-ylphenyl)-imidazo[1,2-a]pyridin-3-yl]amine] | > 10000 | > 10000 |
| Cc1cccc(C)c1Nc1c(-c2ccccc2-c2cccc(C(=O)O)c2)nc2ccccn12 [Compound A2, 2′-[3-(2,6-Dimethylphenylamino)imidazo [1,2-a]pyridin-2-yl]biphenyl-3-carboxylic acid] | > 10000 | > 10000 |
| Cc1cccc(C)c1Nc1c(-c2ccccc2-c2cccs2)nc2ccc(F)cn12 [Compound A3] | > 10000 | 1000 to 10000 |
| Cc1cccc(C)c1Nc1c(-c2ccccc2-c2cccc(C(N)=O)c2)nc2ccccn12 [Compound A4] | 1000 to 10000 | 1000 to 10000 |
| Cc1cccc(C)c1Nc1c(-c2c(-n3cccn3)cccc2-n2cccn2)nc2ccc(F)cn12 [Compound A5, (2,6-Dimethylphenyl)-[2-(2,6-dipyrazol-1-yl-phenyl)-6-fluoroimidazo[1,2-a]pyridin-3-yl]-amine] | 1000 to 10000 | 1000 to 10000 |
| Cc1cccc(C)c1Nc1c(-c2ccccc2-n2cccn2)nc2ccc(F)cn12 [Compound A6] | > 10000 | 1000 to 10000 |
| Cc1cccc(C)c1Nc1c(-c2ccccc2-c2ccc(C(N)=O)o2)nc2ccc(F)cn12 [Compound A7] | 1000 to 10000 | 1000 to 10000 |
| Cc1cccc(C)c1Nc1c(-c2ccccc2-c2ccc([N+](=O)[O-])s2)nc2ccc(F)cn12 [Compound A8] | 1000 to 10000 | 1000 to 10000 |
| Cc1cccc(C)c1Nc1c(-c2ccccc2-c2cncnc2)nc2ccccn12 [Compound A9] | 1000 to 10000 | 10 to 1000 |
| Cc1nc(-c2ccccc2-c2nc3ccc(F)cn3c2Nc2c(C)cccc2C)no1 [Compound A10] | 1000 to 10000 | 10 to 1000 |
| Cc1cccc(C)c1Nc1c(-c2ccccc2-c2cccnc2)nc2ccc(F)cn12 [Compound A11] | 1000 to 10000 | 10 to 1000 |
